These are literature values, as cited in US20230338413A1, “ORAL DELIVERY OF HEPARINS” (GUANGZHOU DAZHOU BIOMEDICINE LTD., priority 2021, published 2023).

On to `O=C([O-])CCCCCCCNC(=O)c1ccccc1O.[Na+]` [SNAC, sodium N-(8-(2-hydroxybenzoyl)amino)caprylate], for which, under “SNAC by itself, initial clinical studies”, the Effects on coagulation entry is “no effects on coagulation”. Besides, the “Measurements of anticoagulation (aPTT, TFPI and anti-Factors IIa and Xa levels)” value (human subjects, single oral dose: 30,000 USP Heparin Units alone or SNAC alone 1.4 to 10.5 g) is “did not change”.
